ChEMBL document CHEMBL4052601, “Glycybridins A-K, Bioactive Phenolic Compounds from Glycyrrhiza glabra” (J Nat Prod, 2017)
Peptide text beside a SMILES is read from it. * marks the point of attachment. Cbz = O=C(OCc1ccccc1)*

Tests used:
[1] = biological target: T1, Tyrosinase (Homo sapiens) (UniProt P14679); conditions: at 10 µM;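 also: tyrosinase of unspecified origin acting on L-tyrosine, compound preincubated with enzyme for 15 min before adding substrate, inhibition expressed versus control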
T1 sequence (whole entry): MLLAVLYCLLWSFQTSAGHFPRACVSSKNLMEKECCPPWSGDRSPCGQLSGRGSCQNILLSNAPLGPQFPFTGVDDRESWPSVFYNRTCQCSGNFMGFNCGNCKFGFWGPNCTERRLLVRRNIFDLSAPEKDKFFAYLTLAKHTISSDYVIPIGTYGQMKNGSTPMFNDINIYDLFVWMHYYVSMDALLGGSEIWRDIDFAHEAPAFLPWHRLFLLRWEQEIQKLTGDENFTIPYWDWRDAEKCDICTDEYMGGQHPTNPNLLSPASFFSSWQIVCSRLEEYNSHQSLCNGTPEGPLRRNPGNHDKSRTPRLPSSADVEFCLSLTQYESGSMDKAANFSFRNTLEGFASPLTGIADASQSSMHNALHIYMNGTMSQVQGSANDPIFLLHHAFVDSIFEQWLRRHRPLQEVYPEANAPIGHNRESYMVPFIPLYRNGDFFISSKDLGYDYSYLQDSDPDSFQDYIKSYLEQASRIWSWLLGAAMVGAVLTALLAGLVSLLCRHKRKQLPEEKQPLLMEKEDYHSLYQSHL
Description: Inhibition of tyrosinase (unknown origin) using L-tyrosine as substrate at 10 uM preincubated for 15 mins followed by substrate addition relative to control

MCF7 = assay: Antiproliferative activity against human MCF7 cells at 10 uM after 24 hrs by MTS assay relative to control; type: functional; conditions: MCF7, 24 h
SW480 = assay: Antiproliferative activity against human SW480 cells at 10 uM after 24 hrs by MTS assay relative to control; type: functional; conditions: SW480, 24 h
RAW264.7 = assay: Antiinflammatory activity against mouse RAW264.7 cells assessed as inhibition of LPS-induced nitric oxide production at 10 uM after 24 hrs by Griess assay relative to control; type: functional; conditions: RAW264.7, 24 h
Homo sapiens = assay: Inhibition of LPS-induced NF-kappaB (unknown origin) transactivation expressed in human SW480 cells at 10 uM administered 1 hr after LPS stimulation measured after 6 hrs by luciferase reporter gene assay relative to control; type: cell-based
A549 = assay: Antiproliferative activity against human A549 cells at 10 uM after 24 hrs by MTS assay relative to control; type: functional; conditions: A549, 24 h
HepG2 = assay: Antiproliferative activity against human HepG2 cells at 10 uM after 24 hrs by MTS assay relative to control; type: functional; conditions: HepG2, 24 h
[2] = biological target: T2, Tyrosine-protein phosphatase non-receptor type 1 (Homo sapiens) (UniProt P18031); conditions: at 10 µM;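 also: recombinant enzyme assay with pNPP substrate, inhibition read after 30 min versus untreated control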
T2 sequence (whole entry): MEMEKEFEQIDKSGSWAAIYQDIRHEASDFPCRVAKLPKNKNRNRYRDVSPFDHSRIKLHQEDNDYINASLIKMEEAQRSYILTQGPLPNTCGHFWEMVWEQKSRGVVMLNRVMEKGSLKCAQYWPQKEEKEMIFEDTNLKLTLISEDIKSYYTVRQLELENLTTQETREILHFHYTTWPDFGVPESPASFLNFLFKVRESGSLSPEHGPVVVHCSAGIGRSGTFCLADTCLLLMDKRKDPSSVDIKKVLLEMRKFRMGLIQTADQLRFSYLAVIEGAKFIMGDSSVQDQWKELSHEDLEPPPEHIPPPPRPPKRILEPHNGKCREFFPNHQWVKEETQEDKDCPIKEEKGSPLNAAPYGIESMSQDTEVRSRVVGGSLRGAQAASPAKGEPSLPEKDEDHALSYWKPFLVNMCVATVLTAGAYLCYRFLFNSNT
Description: Inhibition of recombinant human PTP1B using pNPP as substrate at 10 uM after 30 mins relative to control

Compound | inhibition [1] | inhibition at 10 µM (MCF7) | inhibition at 10 µM (SW480) | inhibition at 10 µM (RAW264.7) | inhibition (Homo sapiens) | inhibition at 10 µM (A549) | inhibition at 10 µM (HepG2) | inhibition [2]
CC1(C)C=Cc2c(ccc3c2OC[C@H]2c4ccc(O)cc4O[C@@H]32)O1 [SHINPTEROCARPIN] | 11.2% | 14.4% | 0% | 4.1% | 0% | 2.2% | 65% | 13.3%
CC1(C)C=Cc2c(ccc3cc(-c4ccc(O)cc4O)oc23)O1 | 66.9% | 20.4% | 27.6% | 14.2% | 17% | 0% | 12.3% | 73.1%
CC1(C)C=Cc2c(ccc(-c3oc4cc(O)ccc4c3C=O)c2O)O1 | 10.5% | 35.8% | 5.3% | 36.5% | 36.6% | 7.9% | 21% | 9.3%
COc1ccc([C@@H]2COc3c(ccc4c3C=CC(C)(C)O4)C2)c(O)c1O | 18.4% | 23.3% | 12.9% | 17.3% | 22.1% | 30.2% | 49.6% | 22.4%
CC(C)=CCc1cc([C@H]2Oc3c(ccc4c3C=CC(C)(C)O4)C(=O)[C@@H]2O)ccc1O | 8.1% | 13.5% | 9.2% | 0.3% | 40.3% | 21.2% | 42.9% | 10.6%
CC(C)C[C@@H](C=O)NC(=O)[C@H](CC(C)C)NC(=O)[C@H](CC(C)C)NC(=O)OCc1ccccc1 (Cbz-Leu-Leu-Leu-aldehyde) |  |  |  |  | 79.2% |  |  | 
CC1(C)C=Cc2c(ccc3c(=O)c(Oc4ccc(O)cc4O)coc23)O1 | 2.4% | 2.6% | 7.1% | 6.3% | 18.1% | 0% | 29.9% | 12.8%
COc1cc(/C=C/C(=O)CC(=O)/C=C/c2ccc(O)c(OC)c2)ccc1O [CURCUMIN] |  |  |  | 70% |  |  |  | 
CC(C)=CCc1c(O)ccc(C(=O)/C=C/c2ccc(O)cc2)c1O [ISOBAVACHALCONE] | 18.4% | 15.6% | 46.7% | 7.5% | 13.2% | 3.5% | 27.3% | 16%
CC(C)=CCc1cc(C[C@@H](O)C(=O)c2cc(CC=C(C)C)c(O)cc2O)ccc1O | 8.3% | 42.1% | 24.6% | 0% | 24.3% | 46.1% | 5.8% | 27%
CC(C)=CCc1cc([C@H]2Oc3c(ccc(O)c3CC=C(C)C)C(=O)C2O)ccc1O (some centres undefined) | 0.8% | 33.2% | 25.2% | 0% | 37% | 24.8% | 39% | 43.9%
CC1(C)C=Cc2cc(C[C@@H](O)C(=O)c3ccc(O)cc3O)ccc2O1 | 1% | 19.3% | 1.9% | 9.3% | 0% | 6.4% | 12.3% | 0.2%
CC(C)=CCc1c(O)ccc2c1OC[C@@H](c1ccc3c(c1O)C=CC(C)(C)O3)C2 | 12.9% | 60.9% | 20.2% | 3.6% | 40.2% | 10.2% | 15.9% | 5.5%
COc1c(CC=C(C)C)c(O)cc2c1C[C@H](c1ccc(O)cc1O)CO2 | 91.1% |  |  |  |  |  |  | 
CC1(C)C=Cc2cc([C@@H]3CC(=O)c4ccc(O)cc4O3)ccc2O1 [ABYSSINONE I] | 2.9% | 13.8% | 17.4% | 0% | 23.1% | 0% | 33.9% | 10.1%
CC(C)=CCc1c(O)cc(O)c2c(=O)c(-c3ccc(O)cc3)coc12 | 1.6% | 19.7% | 21.2% | 1.5% | 7.1% | 0% | 32.4% | 10.6%
CC(C)=CCc1cc([C@@H]2CC(=O)c3ccc(O)cc3O2)ccc1O [ABYSSINONE II] | 7.8% | 42.3% | 0% | 10.5% | 56.6% | 0% | 44.2% | 4.2%
CC1(C)C=Cc2cc3c(cc2O1)OCC(c1ccc(O)c2c1OC(C)(C)C=C2)=C3 | 1.3% | 26.6% | 24.3% | 2.6% | 0% | 0.7% | 0% | 95.3%
CC1(C)C=Cc2c(ccc([C@@H]3COc4c(ccc5c4C=CC(C)(C)O5)C3)c2O)O1 [HISPAGLABRIDIN B] | 0% | 38.3% | 47.9% | 10.5% | 0% | 34.3% | 45.9% | 42%
COc1ccc(C2(O)COc3c(ccc(O)c3CC=C(C)C)C2=O)c(O)c1 (centres undefined) | 13.6% | 2.8% | 4.2% | 5.5% | 13.7% | 39.1% | 1.6% | 10.1%
CC(C)=CCc1c(O)ccc(C(=O)/C=C/c2cc(O)c3c(c2)C=CC(C)(C)O3)c1O | 0% | 72% | 34.7% | 2% | 23.1% | 10.9% | 21.7% | 47.1%
CC1(C)C=Cc2c(ccc3c2O[C@H]2c4ccc(O)cc4OC[C@@H]32)O1 [PHASEOLIN] | 2.4% | 6.8% | 0% | 2.6% | 2.1% | 34.7% | 0% | 9.5%
COc1ccc([C@@H]2COc3c(ccc4c3C=CC(C)(C)O4)C2)c(O)c1 | 2.2% | 5.3% | 16.1% | 8.5% | 4.1% | 35.9% | 54.2% | 14.6%
CC1(C)C=Cc2c(O)ccc(-c3cc4ccc(O)cc4o3)c2O1 | 12.5% | 9.7% | 6.4% | 48.9% | 32.2% | 6.5% | 0% | 1.3%
CC1(C)C=Cc2c(ccc3c(=O)c(-c4ccc(O)cc4O)coc23)O1 | 1% | 42.1% | 0% | 12.1% | 1.5% | 4.9% | 30% | 6%
CCc1c2c(nc3ccc(OC(=O)N4CCC(N5CCCCC5)CC4)cc13)-c1cc3c(c(=O)n1C2)COC(=O)[C@]3(O)CC [IRINOTECAN] |  | 93.6% | 95% |  |  | 91.8% | 98.9% | 
C[C@H]1[C@H](C)CC[C@]2(C(=O)O)CC[C@]3(C)C(=CC[C@@H]4[C@@]5(C)CC[C@H](O)C(C)(C)[C@@H]5CC[C@]43C)[C@H]12 |  |  |  |  |  |  |  | 82.1%
